Laboratory results as given in PMC4531110 (Chemical biology & drug design, 2015).
Entries after “also recorded” stand apart in the source; their conditions may differ. Like-named read-outs stand apart in the source and are kept apart here.

How the values were obtained:
[1] = tested on: A/WSN/33 influenza virus (WSN-Ren luciferase virus) in MDCK-HA cells; settings: for IC50/CC50: ratio of WSN-Ren IC50 to ATPlite CC50
influenza RNA promoter [2] = assay type: binding, influenza A virus; settings: for line broadening of the imino protons of U27: 1D 1H NMR; for binding to the RNA promoter (1D 1H NMR, imino protons of U26, G13): 30 or 50 μM RNA promoter; for Kd: pH 6
in vitro = settings: dog
[3] = ATPlite assay for cytotoxicity assessment; settings: dog, MDCK cells (results text: MDCK-HA cells)
[4] = tested on: wild-type influenza virus (A/Puerto Rico/8/1935); assay type: cell-based
influenza RNA promoter [5] = settings: from peak intensity of imino protons of U26, G13 and G24; cited from earlier work
[6] = tested on: A/WSN/33 influenza virus (WSN-Ren luciferase virus) in MDCK-HA cells; settings: cell-based viral replication (luciferase) assay; cited from earlier work
WSN-Ren luciferase virus = assay: Viral replication assay by RT-PCR, WSN nucleoprotein mRNA level in MDCK-HA cells; assay type: cell-based, influenza A virus; settings: 50 μM, standardized against beta-actin, vs DMSO
MDCK cells [7] = settings: cited from earlier work
MDCK cells [8] = tested on: MDCK cells

SMILES | IC50/CC50 [1] | line broadening of the imino protons of U27 (influenza RNA promoter [2]) | binding to the RNA promoter (1D 1H NMR, imino protons of U26, G13) (influenza RNA promoter [2]) | Kd (influenza RNA promoter [2]) [µM] | CC50 at 24 h (in vitro) [µM] | further results
COc1cc2nc(N3CCN(C(=O)C(C)C)CC3)nc(N)c2cc1OC [Compound 7, 1-(4-(4-amino-6,7-dimethoxyquinazolin-2-yl)piperazin-1-yl)-2-methylpropan-1-one] | <0.14 | caused line broadening of the imino protons of U27 | compound binding to RNA promoter | 158 | > 250 | IC50 [1]: 33.9 ± 23.2 µM
COc1cc2nc(N3CCN(C(=O)C4CCCO4)CC3)nc(N)c2cc1OC (centres unmarked) [Compound 13, (4-(4-amino-6,7-dimethoxyquinazolin-2-yl)piperazin-1-yl)(tetrahydrofuran-2-yl)methanone] | – | – | – | – | – | CC50 at 24 h [3]: > 250 µM
COc1cc2nc(N3CCN(C(=O)C4CC4)CC3)nc(N)c2cc1OC [Compound 10, (4-(4-amino-6,7-dimethoxyquinazolin-2-yl)piperazin-1-yl)(cyclopropyl)methanone] | <0.14 | – | compound binding to RNA promoter | 127 | > 250 | IC50 [1]: 34.2 ± 17.2 µM; inhibition of A/PR8 nucleoprotein mRNA level [4]: significant dose-dependent inhibitory activity; also recorded: showed inhibitory effects
COc1cc2nc(N3CCN(S(C)(=O)=O)CC3)nc(N)c2cc1OC [Compound 5, 6,7-dimethoxy-2-(4-(methylsulfonyl)piperazin-1-yl)quinazolin-4-amine] | – | caused line broadening of the imino protons of U27 | bound to the influenza RNA promoter; also recorded: compound binding to RNA promoter | – | > 250 | –
COc1cc2nc(N3CCN(C(=O)c4ccccc4)CC3)nc(N)c2cc1OC [Compound 16, (4-(4-amino-6,7-dimethoxyquinazolin-2-yl)piperazin-1-yl)(phenyl)methanone] | <0.43 | – | compound binding to RNA promoter | 321 | > 250 | –
CCOC(=O)C1=C[C@@H](OC(CC)CC)[C@H](NC(C)=O)[C@@H](N)C1 [Oseltamivir phosphate, oseltamivir phosphate, reference compound] | – | – | – | – | – | inhibition of A/PR8 nucleoprotein mRNA level [4]: showed inhibitory effects
COc1cc2nc(N3CCN(C(=O)CCCCN)CC3)nc(N)c2cc1OC [Compound 4, 5-amino-1-(4-(4-amino-6,7-dimethoxyquinazolin-2-yl)piperazin-1-yl)pentan-1-one] | – | caused line broadening of the imino protons of U27 | bound to the influenza RNA promoter; also recorded: compound binding to the RNA promoter | – | > 250 | –
COc1cc2nc(N3CCNCC3)nc(N)c2cc1OC [Compound 1, 6,7-dimethoxy-2-(1-piperazinyl)-4-quinazolinamine] | <0.55 | caused line broadening of the imino protons of U27 | – | 61.5 | – | Kd (influenza RNA promoter [5]): 50.5 ± 9 µM; IC50 [6]: 549 µM; inhibition of viral nucleoprotein mRNA production (WSN-Ren luciferase virus): not effective; CC50 (MDCK cells [7]): > 1 mM
COc1cc2nc(N3CCN(C(=O)C45CC6CC(CC(C6)C4)C5)CC3)nc(N)c2cc1OC [Compound 12, (1r,3R,5S)-adamantan-1-yl(4-(4-amino-6,7-dimethoxyquinazolin-2-yl)piperazin-1-yl)methanone] | >15.24 | – | bound to the influenza RNA promoter; also recorded: compound binding to RNA promoter | – | – | CC50 (MDCK cells [8]): 16.4 µM; IC50 [1]: > 250 µM
COc1cc2nc(N3CCN(C(=O)CCO)CC3)nc(N)c2cc1OC [Compound 9, 1-(4-(4-amino-6,7-dimethoxyquinazolin-2-yl)piperazin-1-yl)-3-hydroxypropan-1-one] | – | caused line broadening of the imino protons of U27 | bound to the influenza RNA promoter; also recorded: compound binding to RNA promoter | – | > 250 | –
COc1cc2nc(N3CCN(C(=O)c4cccs4)CC3)nc(N)c2cc1OC [Compound 15, (4-(4-amino-6,7-dimethoxyquinazolin-2-yl)piperazin-1-yl)(thiophen-2-yl)methanone] | 0.25 | – | compound binding to RNA promoter | 221 | 67 | –
COc1cc2nc(N3CCN(C(=O)c4ccco4)CC3)nc(N)c2cc1OC [Compound 14, (4-(4-amino-6,7-dimethoxyquinazolin-2-yl)piperazin-1-yl)(furan-2-yl)methanone] | 0.36 | caused line broadening of the imino protons of U27 | compound binding to RNA promoter | – | – | CC50 at 24 h [3]: 78.2 µM
COc1cc2nc(N3CCN(C(=O)C(C)OC)CC3)nc(N)c2cc1OC (centres unmarked) [Compound 11, 1-(4-(4-amino-6,7-dimethoxyquinazolin-2-yl)piperazin-1-yl)-2-methoxypropan-1-one] | – | caused line broadening of the imino protons of U27 | bound to the influenza RNA promoter; also recorded: compound binding to RNA promoter | – | > 250 | –
CCCC(=O)N1CCN(c2nc(N)c3cc(OC)c(OC)cc3n2)CC1 [Compound 8, 1-(4-(4-amino-6,7-dimethoxyquinazolin-2-yl)piperazin-1-yl)butan-1-one] | <0.18 | – | compound binding to RNA promoter | 44.4 | > 250 | IC50 [1]: 44.2 ± 11.3 µM
COc1cc2nc(N3CCN(C(=O)CNC(=O)CNC(=O)CN)CC3)nc(N)c2cc1OC [Compound 3, 2-amino-N-(2-((2-(4-(4-amino-6,7-dimethoxyquinazolin-2-yl)piperazin-1-yl)-2-oxoethyl)amino)-2-oxoethyl)acetamide] | – | caused line broadening of the imino protons of U27 | bound to the influenza RNA promoter; also recorded: compound binding to the RNA promoter | 132 | > 250 | –
CCC(=O)N1CCN(c2nc(N)c3cc(OC)c(OC)cc3n2)CC1 [Compound 6, 1-(4-(4-amino-6,7-dimethoxyquinazolin-2-yl)piperazin-1-yl)propan-1-one] | <0.16 | – | compound binding to RNA promoter | 114 | > 250 | –
